The values below come from US4670038A, “Cyclotriphosphazatriene-derivatives as soil urease activity inhibitors” (Tennessee Valley Authority, priority 1986, dated 1987).

For series [1] the following is noted: soil, 168 h; cited from earlier work.
For series [2] the following is noted: cited from earlier work.
For series [3], the system named is soil urease. As to the kind of experiment: Soil urease inhibition in Crowley silt loam soil, extended time evaluation system (urea added at selected intervals). It is filed as biochemical. The conditions noted are these: for Soil Urease Inhibition, 0 Days / Soil Urease Inhibition, 3 Days / Soil Urease Inhibition, 7 Days / Soil Urease Inhibition, 14 Days / Soil Urease Inhibition, 21 Days: 7 micromoles compound per 120 g Crowley silt loam, reincubated 16 hours; for Soil Urease Inhibition, 0 Days: urea added after 0 days; for Soil Urease Inhibition, 3 Days: urea added after 3 days; for Soil Urease Inhibition, 7 Days: urea added after 7 days; for Soil Urease Inhibition, 14 Days: urea added after 14 days; for Soil Urease Inhibition, 21 Days: urea added after 21 days.

Series [4] has as its system soil urease. As to the kind of experiment: Urea remaining unhydrolyzed in Hastings silt loam soil, well-mixed system. The class given is biochemical. The conditions noted are these: for Soil urease inhibitory properties in words, well-mixed system: 1-, 3- and 6-day tests, compared with phenyl phosphorodiamidate; for Unhydrolyzed Urea, % Well-Mixed 1-Day / Unhydrolyzed Urea, % Well-Mixed 3-Day / Unhydrolyzed Urea, % Well-Mixed 6-Day: Table V, 41 mg inhibitor, 410 mg urea, 100 g soil, three replications, 25° C.; for Unhydrolyzed Urea, % Well-Mixed 3-Day: 3 days; for Unhydrolyzed Urea, % Well-Mixed 6-Day: 6 days; for Time until percentage urease inhibition reaches 0% (FIG. 1): FIG. 1, plotted and extrapolated from data of Table V, conventional test.

Series [5] has as its system soil urease. The series is described as follows: Urea hydrolysis in bands of urea plus inhibitor in Hastings silt loam soil (banded system). To be noted: for Unhydrolyzed Urea, % Banded 3-Day / Unhydrolyzed Urea, % Banded 6-Day: Table VI, 41 mg inhibitor/band; for Unhydrolyzed Urea, % 3 Days / Unhydrolyzed Urea, % Banded 3-Day: 3 days; for Unhydrolyzed Urea, % 6 Days / Unhydrolyzed Urea, % Banded 6-Day: 6 days. The class given is biochemical.

[6] abbreviates: Hastings silt loam, banded system, 3-day and 6-day tests.
Where [7] appears, read: Table II, equimolar basis, 0.25 millimoles inhibitor/band, 410 mg urea/band, three replications, Hastings silt loam, 25° C.
Setting [8] is: Table III, inhibitor 10 percent of urea (wt/wt), 41 mg/band, four replications, Hastings silt loam, 25° C.
Setting [9] is: Table IV, inhibitor 10 percent of urea (wt/wt), 41 mg/band, two replications, Hastings silt loam.
Where [10] appears, read: 410 mg urea/band, three replications, Hastings silt loam, 25° C.

Structures are written as SMILES. Entries after “also recorded” stand apart in the source; their conditions may differ. Read-outs that look alike come from different tables or passages of the source.

As for `NP1(N)=NP(N)(N)=NP(N)(N)=N1` [P3 N3 (NH2)6, 2,2,4,4,6,6-hexaaminocyclotriphosphazatriene], the “Percent hydrolyzed in 7 days” value in series [1] is 6-13%. Also, the Time of hydrolysis entry in series [2] (pH 8, 15° C.) is listed as “about 300 hours”. Also, the Time of hydrolysis in series [2] (pH 8, 30° C.) was approximately 100 h. In addition, in the series with soil urease [3] (30° C.), the “Soil Urease Inhibition, 0 Days” value stood at 46%; the “Soil Urease Inhibition, 3 Days” value stood at 23%; the “Soil Urease Inhibition, 7 Days” value was 20%; the “Soil Urease Inhibition, 14 Days” value worked out at 4%. Further, the “Soil Urease Inhibition, 21 Days” value with soil urease [3] (30° C.) is on record as 4%. Also, the “Soil Urease Inhibition, 21 Days” value in the series with soil urease [3] (30° C., listed as hexaaminocyclotriphosphazatriene) is listed as “about 4%”. The “Urease inhibition compared with reference standard PPDA, in words (FIG. 2)” value in the series with soil urease [3] (time independent modified soil evaluation procedure, 21-day test period) is “as good or better than PPDA for the time period from 14 to 21 days”. For the same compound, in the series with soil urease [4], the “Soil urease inhibitory properties in words, well-mixed system” value (from here on “Soil urease inhibitory properties”) is “less than that of phenyl phosphorodiamidate”; the “Unhydrolyzed Urea, % Well-Mixed 1-Day” value is given as 86%; the “Unhydrolyzed Urea, % Well-Mixed 3-Day” value is 57%; the “Unhydrolyzed Urea, % Well-Mixed 6-Day” value amounted to 9%. The “Soil urease inhibition in words, banded soil tests” value (“Soil urease inhibition in words” for short) in the series with soil urease [5] (setting [6]) is “comparable to PPDA as an inhibitor of soil urease activity; also recorded: inhibit soil urease during the 3-day and 6-day tests”. Besides, in the series with soil urease [5] (setting [7]), the “Unhydrolyzed Urea, % 3 Days” value was 48.1% and the “Unhydrolyzed Urea, % 6 Days” value amounted to 16.8%. Also, in the series on soil urease [5] (setting [8]), the “Unhydrolyzed Urea, % 3 Days” value came to 49.7% and the “Unhydrolyzed Urea, % 6 Days” value was 9.5%. Besides, in the series on soil urease [5] (setting [9]), the “Unhydrolyzed Urea, % 3 Days” value was 53.8% and the “Unhydrolyzed Urea, % 6 Days” value was 9.5%. Further, in the series on soil urease [5] (setting [10]), the “Unhydrolyzed Urea, % Banded 3-Day” value came to 64% and the “Unhydrolyzed Urea, % Banded 6-Day” value was determined as 8%.

`NP(N)(N)=O` [PO(NH2)3, Phosphoryltriamide, reference compound]: in the series with soil urease [3] (30° C.), the “Soil Urease Inhibition, 0 Days” value was 29%; the “Soil Urease Inhibition, 3 Days” value worked out at 4%; the “Soil Urease Inhibition, 7 Days” value was found to be 12%; the “Soil Urease Inhibition, 14 Days” value was found to be 0%. The “Soil Urease Inhibition, 21 Days” value in the series with soil urease [3] (30° C.) was 0%. In addition, in the series with soil urease [5] (setting [7]), the “Unhydrolyzed Urea, % 3 Days” value is reported as 43.4% and the “Unhydrolyzed Urea, % 6 Days” value was 1.8%. In the series on soil urease [5] (setting [8]), the “Unhydrolyzed Urea, % 3 Days” value came out at 48.1% and the “Unhydrolyzed Urea, % 6 Days” value is listed as 1.1%. In the series on soil urease [5] (setting [9]), the “Unhydrolyzed Urea, % 3 Days” value was found to be 54.2% and the “Unhydrolyzed Urea, % 6 Days” value was determined as 2.6%.

As for `NP1(N)=NP(N)(Oc2ccccc2)=NP(N)(Oc2ccccc2)=N1` (centres unmarked) [P3 N3 (NH2)4 (OC6 H5)2, 2,4-diphenoxy-2,4,6,6-tetraaminocyclotriphosphazatriene], in the series with soil urease [3] (30° C.), the “Soil Urease Inhibition, 0 Days” value stood at 75%; the “Soil Urease Inhibition, 3 Days” value came to 94%; the “Soil Urease Inhibition, 7 Days” value is on record as 71%; the “Soil Urease Inhibition, 14 Days” value is listed as 69%. Besides, the “Soil Urease Inhibition, 21 Days” value in the series with soil urease [3] (30° C.) is recorded as 65%. Also, in the series on soil urease [4], the “Soil urease inhibitory properties” value is “comparable to phenyl phosphorodiamidate”; the “Time until percentage urease inhibition reaches 0% (FIG. 1)” value is on record as “about 10 days”; the “Unhydrolyzed Urea, % Well-Mixed 1-Day” value amounted to 94%; the “Unhydrolyzed Urea, % Well-Mixed 3-Day” value was found to be 74%. Besides, the “Unhydrolyzed Urea, % Well-Mixed 6-Day” value with soil urease [4] was 36%. Besides, the “Soil urease inhibition in words” value in the series with soil urease [5] (setting [6]) is “inhibit soil urease during the 3-day and 6-day tests”. Besides, in the series on soil urease [5] (setting [10]), the “Unhydrolyzed Urea, % Banded 3-Day” value is listed as 60% and the “Unhydrolyzed Urea, % Banded 6-Day” value came out at 4%.

Take `NP1(N)=NP(N)(N)=NP(N)(Oc2ccccc2)=N1` (centres unmarked) [P3 N3 (NH2)5 (OC6 H5), 2-phenoxy-2,4,4,6,6-pentaaminocyclotriphosphazatriene]: in the series with soil urease [3] (30° C.), the “Soil Urease Inhibition, 0 Days” value was 95%; the “Soil Urease Inhibition, 3 Days” value was 75%; the “Soil Urease Inhibition, 7 Days” value was 49%; the “Soil Urease Inhibition, 14 Days” value came out at 42%. In addition, the “Soil Urease Inhibition, 21 Days” value in the series on soil urease [3] (30° C.) came out at 44%. In the series with soil urease [4], the “Soil urease inhibitory properties” value was “comparable to phenyl phosphorodiamidate”; the “Time until percentage urease inhibition reaches 0% (FIG. 1)” value is on record as “about 10 days”; the “Unhydrolyzed Urea, % Well-Mixed 1-Day” value is listed as 96%; the “Unhydrolyzed Urea, % Well-Mixed 3-Day” value was 82%. Also, the “Unhydrolyzed Urea, % Well-Mixed 6-Day” value with soil urease [4] was found to be 44%. For the same compound, in the series on soil urease [5] (setting [6]), the “Soil urease inhibition in words” value was “inhibit soil urease during the 3-day and 6-day tests”. Besides, in the series with soil urease [5] (setting [10]), the “Unhydrolyzed Urea, % Banded 3-Day” value came to 61% and the “Unhydrolyzed Urea, % Banded 6-Day” value is 7%.

With `CNP1(NC)=NP(N)(N)=NP(NC)(NC)=N1` [P3 N3 (NH2)2 (NHCH3)4, 2,2,4,4,-tetra(monomethylamino)-6,6-diaminocyclotriphosphazatriene], in the series on soil urease [5] (setting [9]), the “Unhydrolyzed Urea, % 3 Days” value turned out to be 0.5% and the “Unhydrolyzed Urea, % 6 Days” value is recorded as 0.0%.

Take `CN(C)P1(N(C)C)=NP(N(C)C)(N(C)C)=NP(N(C)C)(N(C)C)=N1` [P3 N3 [N(CH3)2]6, 2,2,4,4,6,6-hexa(dimethylamino)cyclotriphosphazatriene]: in the series on soil urease [5] (setting [6]), the “Soil urease inhibition in words” value is recorded as “do not exhibit urease inhibition”. For the same compound, in the series with soil urease [5] (setting [9]), the “Unhydrolyzed Urea, % 3 Days” value is 0.0% and the “Unhydrolyzed Urea, % 6 Days” value worked out at 0.0%.

On to `NP1(Oc2ccccc2)=NP(N)(Oc2ccccc2)=NP(N)(Oc2ccccc2)=N1` (centres unmarked) [P3 N3 (NH2)3 (OC6 H5)3, 2,4,6-triphenoxy-2,4,6-triaminocyclotriphosphazatriene], for which, in the series with soil urease [3] (30° C.), the “Soil Urease Inhibition, 0 Days” value is 22%; the “Soil Urease Inhibition, 3 Days” value amounted to 79%; the “Soil Urease Inhibition, 7 Days” value is 74%; the “Soil Urease Inhibition, 14 Days” value turned out to be 84%. Also, the “Soil Urease Inhibition, 21 Days” value in the series with soil urease [3] (30° C.) was 82%. In the series on soil urease [3] (Crowley silt loam, 30° C., period from 7 to 21 days), the “Urease inhibition sustained during the period from 7 to 21 days (FIG. 2)” value is “greater than 80%”. For the same compound, in the series on soil urease [4], the “Soil urease inhibitory properties” value is recorded as “less than that of phenyl phosphorodiamidate”; the “Unhydrolyzed Urea, % Well-Mixed 1-Day” value was 82%; the “Unhydrolyzed Urea, % Well-Mixed 3-Day” value came out at 37%; the “Unhydrolyzed Urea, % Well-Mixed 6-Day” value is reported as 0%. In the series with soil urease [5] (setting [10]), the “Unhydrolyzed Urea, % Banded 3-Day” value turned out to be 21% and the “Unhydrolyzed Urea, % Banded 6-Day” value was determined as 0%.

`CC(=O)NO` [CH3 C(NOH)(OH), Acetohydroxamic acid, reference compound]: in the series with soil urease [5] (setting [7]), the “Unhydrolyzed Urea, % 3 Days” value came out at 26.2% and the “Unhydrolyzed Urea, % 6 Days” value is 6.7%.

Consider `ClP1(Oc2ccccc2)=NP(Cl)(Oc2ccccc2)=NP(Cl)(Oc2ccccc2)=N1` (centres unmarked) [P3 N3 (Cl)3 (OC6 H5)3, 2,4,6-triphenoxy-2,4,6-trichlorocyclotriphosphazatriene], for which, in the series on soil urease [5], the “Soil urease inhibition in words” value is recorded as “not effective urease inhibitors”.

`CNP1(NC)=NP(NC)(NC)=NP(NC)(NC)=N1` [P3 N3 (NHCH3)6, 2,2,4,4,6,6-hexa(monomethylamino)cyclotriphosphazatriene]: the “Soil urease inhibition in words” value in the series on soil urease [5] (setting [6]) is on record as “do not exhibit urease inhibition”. Besides, in the series on soil urease [5] (setting [9]), the “Unhydrolyzed Urea, % 3 Days” value stood at 0.0% and the “Unhydrolyzed Urea, % 6 Days” value amounted to 0.0%.

Consider `CN(C)P1(N(C)C)=NP(N)(N)=NP(N(C)C)(N(C)C)=N1` [P3 N3 (NH2)2 [N(CH3)2]4, 2,2,4,4,-tetra(dimethylamino)-6,6-diaminocyclotriphosphazatriene], for which, in the series on soil urease [5] (setting [6]), the “Soil urease inhibition in words” value is on record as “do not exhibit urease inhibition”.

On to `NC(=O)NO` [CO(NH2)(NHOH), Hydroxyurea, reference compound], for which, in the series on soil urease [5] (setting [7]), the “Unhydrolyzed Urea, % 3 Days” value was found to be 20.3% and the “Unhydrolyzed Urea, % 6 Days” value was 0.2%.
